Results published in US8263606B2 (Xenon Pharmaceuticals Inc., priority 2008, dated 2012).

Key:
[1] = test system: inactivated state of the channel of interest (sodium channel); assay: Electrophysiological assay (whole cell voltage clamp, in vitro); format: cell-based; conditions: affinity for the inactivated state of the channel of interest
Experimental: Cells expressing the channel of interest are cultured in DMEM growth media (Gibco) with 0.5 mg/mL G418, +/−1% PSG, and 10% heat-inactivated fetal bovine serum at 37° C. and 5% CO2. For electrophysiological recordings, cells are plated on 10 mm dishes.
Whole cell recordings are examined by established methods of whole cell voltage clamp (Bean et al., op. cit.) using an Axopatch 200B amplifier and Clampex software (Axon Instruments, Union City, Calif.). All experiments are performed at ambient temperature. Electrodes are fire-polished to resistances of 2-4 Mohms Voltage errors and capacitance artifacts are minimized by series resistance compensation and capacitance compensation, respectively. Data are acquired at 40 kHz and filtered at 5 kHz. The external (bath) solution consists of: NaCl (140 mM), KCl (5 mM), CaCl2 (2 mM), MgCl2 (1 mM), HEPES (10 mM) at pH 7.4. The internal (pipette) solution consists of (in mM): NaCl (5), CaCl2 (0.1), MgCl2 (2), CsCl (10), CsF (120), HEPES (10), EGTA (10), at pH 7.2.
To estimate the steady-state affinity of compounds for the resting and inactivated state of the channel (Kr and Ki, respectively), 12.5 ms test pulses to depolarizing voltages from −60 to +90 mV from a holding potential of −120 m V is used to construct current-voltage relationships (I-V curves). A voltage near the peak of the IV-curve (−30 to 0 m V) is used as the test pulse throughout the remainder of the experiment. Steady-state inactivation (availability) curves are then constructed by measuring the current activated during a 8.75 ms test pulse following 1 second conditioning pulses to potentials ranging from −120 to −10 m V.
The steady-state voltage-dependence of binding of a compound to a sodium channel is determined by measuring the blockage of the ionic current at two holding potentials. Binding to rested-state channels is determined by using a holding potential of −120 mV, so that maximal availability is achieved. Binding to inactivated-state channels is evaluated at a holding potential such that only 10% of the channels are available to open. The membrane potential is held at this voltage for at least 10 seconds so that drug binding can equilibrate.
The apparent dissociation constant at each voltage is calculated with the equation:
[formula] where Kd is the dissociation constant (either Kr or Ki), and [Drug] is the concentration of the test compound.
The Example numbers provided in Table 3 correspond to the Examples herein: […]

CYP3A4 = CYP3A4 (Homo sapiens, UniProt P08684); assay: Cytochrome P450 (CYP450) Inhibition Assay, CYP3A4 (Vivid fluorescence, BOMCC substrate); conditions: human, P450 Baculosomes (recombinant CYP3A4), probe BOMCC (Vivid substrate)
Chain of CYP3A4 (P08684 whole entry): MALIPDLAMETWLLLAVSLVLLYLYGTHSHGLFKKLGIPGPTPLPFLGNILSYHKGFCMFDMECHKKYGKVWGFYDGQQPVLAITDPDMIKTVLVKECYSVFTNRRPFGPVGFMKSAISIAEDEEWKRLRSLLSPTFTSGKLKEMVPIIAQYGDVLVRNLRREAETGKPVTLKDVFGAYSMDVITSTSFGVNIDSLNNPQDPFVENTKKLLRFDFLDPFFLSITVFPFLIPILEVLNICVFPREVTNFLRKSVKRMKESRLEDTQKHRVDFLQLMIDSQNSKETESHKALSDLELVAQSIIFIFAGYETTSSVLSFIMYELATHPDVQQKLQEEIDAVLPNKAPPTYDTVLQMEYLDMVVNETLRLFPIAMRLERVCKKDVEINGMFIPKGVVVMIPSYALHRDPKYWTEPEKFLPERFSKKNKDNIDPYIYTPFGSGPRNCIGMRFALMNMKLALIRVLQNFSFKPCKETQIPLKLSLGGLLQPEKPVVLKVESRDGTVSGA

sodium channel = assay: Guanidine influx assay (14C-guanidine radiotracer flux, in vitro); format: cell-based, human or rat; conditions: guanidine influx assay using a known cell line that expresses a sodium channel
In short: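 Aconitine holds channels open while 14C-guanidine enters human or rat sodium-channel-expressing cells in choline-substituted low-sodium saline, with test agent present at ambient temperature. Retained tracer is scintillation-counted and IC50 fitted by a four-parameter logistic model.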

Row | Compound | inhibition at 10 µM (CYP3A4) | IC50 (sodium channel) | IC50 (sodium channel; activity level class) | melting point | Ki [1]
1 | COc1ccc(-c2cccc3c2C2(COc4cc5c(cc42)CCO5)C(=O)N3C[C@H]2CCCO2)cc1 (stereo partly drawn) [Example 16.9, 4′-(4-methoxyphenyl)-1′-[(2R)-tetrahydrofuran-2-ylmethyl]-5,6-dihydrospiro[benzo[1,2-b:5,4-b′]difuran-3,3′-indol]-2′(1′H)-one] | > 50% | 1 to 100 nM |  |  | < 300 nM
2 | COCCCCN1C(=O)C2(COc3cc4c(cc32)OCCO4)c2ccccc21 (centres unmarked) [Example 7.8] | < 50% |  |  |  | < 300 nM
3 | O=C1N(C[C@H]2CCCO2)c2cccc(-c3ccc(Oc4ccccc4)cc3)c2C12COc1cc3c(cc12)CCO3 (stereo partly drawn) [Example 16.6, 4′-(4-phenoxyphenyl)-1′-[(2R)-tetrahydrofuran-2-ylmethyl]-5,6-dihydrospiro[benzo[1,2-b:5,4-b′]difuran-3,3′-indol]-2′(1′H)-one] | < 50% | 100 to 1000 nM |  |  | < 300 nM
4 | O=C1N(CC2CCCCO2)c2ccccc2C12COc1cc3c(cc12)CCO3 (centres unmarked) [Example 4, 1′-(tetrahydro-2H-pyran-2-ylmethyl)-5,6-dihydrospiro[benzo[1,2-b:5,4-b′]difuran-3,3′-indol]-2′(1′H)-one] | < 50% |  | 1 to 100 nM |  | > 300 nM
5 | CCCCCN1C(=O)[C@]2(COc3cc4c(cc32)OCCO4)c2ccccc21 [Example 7.4, (R)-1′-pentyl-2,3-dihydrospiro[furo[2,3-g][1,4]benzodioxine-8,3′-indol]-2′(1′H)-one] | > 50% |  |  |  | > 300 nM
6 | O=C1N(CC2CCCOC2)c2ccccc2C12COc1cc3c(cc12)CCO3 (centres unmarked) [Example 4.10, 1′-(tetrahydro-2H-pyran-3-ylmethyl)-5,6-dihydrospiro[benzo[1,2-b:5,4-b′]difuran-3,3′-indol]-2′(1′H)-one] | < 50% |  | 1 to 100 nM |  | > 300 nM
7 | O=C1N(C[C@H]2CCCO2)c2ccccc2[C@@]12COc1cc3c(cc12)CCO3 [Example 11.67, (3R)-1′-[(2R)-tetrahydrofuran-2-ylmethyl]-5,6-dihydrospiro[benzo[1,2-b:5,4-b′]difuran-3,3′-indol]-2′(1′H)-one] | < 50% | 1000 to 10000 nM |  |  | > 300 nM
8 | O=C1N(C[C@H]2CCCO2)c2ccccc2[C@]12COc1cc3c(cc12)CCO3 [Example 11.66, (3S)-1′-[(2R)-tetrahydrofuran-2-ylmethyl]-5,6-dihydrospiro[benzo[1,2-b:5,4-b′]difuran-3,3′-indol]-2′(1′H)-one] |  | 1 to 100 nM |  |  | > 300 nM
9 | COc1ccc2c(c1)OCC21C(=O)N(C[C@H]2CCCO2)c2ccccc21 (stereo partly drawn) [Example 4.68, 6-methoxy-1′-[(2R)-tetrahydrofuran-2-ylmethyl]spiro[1-benzofuran-3,3′-indol]-2′(1′H)-one] | < 50% |  | 100 to 1000 nM |  | > 300 nM
10 | O=C1N(Cc2cccnc2)c2ccccc2C12COc1cc3c(cc12)OCCO3 (centres unmarked) [Example 10.1, 1′-(pyridin-3-ylmethyl)-2,3-dihydrospiro[furo[2,3-g][1,4]benzodioxine-8,3′-indol]-2′(1′H)-one] |  |  |  |  | > 300 nM
11 | O=C1N(Cc2cnc(O)nc2)c2ccccc2C12COc1cc3c(cc12)OCCO3 (centres unmarked) [Example 35.1, 1′-[(2-hydroxypyrimidin-5-yl)methyl]-2,3-dihydrospiro[furo[2,3-g][1,4]benzodioxine-8,3′-indol]-2′(1′H)-one] | < 50% | 1000 to 10000 nM |  | > 250 °C | 
12 | COCCOc1ccc2c(c1)C1(CO2)C(=O)N(Cc2ccccn2)c2ccccc21 (centres unmarked) [Example 5.35, 5-(2-methoxyethoxy)-1′-(pyridin-2-ylmethyl)spiro[1-benzofuran-3,3′-indol]-2′(1′H)-one] | < 50% |  | 100 to 1000 nM | 140 to 142 °C | 

Second part, led by results:

Row | inhibition at 10 µM (CYP3A4) | IC50 (sodium channel) | IC50 (sodium channel; activity level class) | melting point | Compound | Ki [1]
13 | > 50% |  |  |  | CN1C(=O)C2(COc3cc4c(cc32)OCCO4)c2c(Oc3ccccc3)cccc21 (centres unmarked) [Example 16.80, 1′-methyl-4-phenoxy-2,3-dihydrospiro[furo[2,3-g][1,4]benzodioxine-8,3′-indol]-2′(1′H)-one] | < 300 nM
14 | < 50% |  |  |  | O=C1N(Cc2ncccc2C(F)(F)F)c2ccccc2C12OCOc1cc3c(cc12)OCCO3 (centres unmarked) [Example 2.54, 1′-{[3-(trifluoromethyl)pyridin-2-yl]methyl}-7,8-dihyrdospiro[1,4-dioxino[2,3-g][1,3]benzodioxine-4,3′-indol]-2′(1′H)-one] | > 300 nM
15 | < 50% |  | 100 to 1000 nM |  | O=C1N(CC2CCO2)c2ccccc2C12COc1cc3c(cc12)CCO3 (centres unmarked) [Example 4.20, 1′-(oxetan-2-ylmethyl)-5,6-dihydrospiro[benzo[1,2-b:5,4-b′]difuran-3,3′-indol]-2′(1′H)-one] | > 300 nM
16 | > 50% |  | 100 to 1000 nM |  | O=C1N(Cc2ccc(C(F)(F)F)o2)c2c(Cl)cccc2C12COc1cc3c(cc12)CCO3 (centres unmarked) [Example 5.1, 7′-chloro-1′-((5-(trifluoromethyl)furan-2-yl)methyl)-5,6-dihydro-2H-spiro[benzofuro[6,5-b]furan-3,3′-indolin]-2′-one] | < 300 nM
17 | < 50% | 1 to 100 nM |  |  | COc1cc2c(cc1C)[C@@]1(CO2)C(=O)N(CN2CCN(C)CC2)c2ccccc21 [Example 11.64, (3S)-6-methoxy-5-methyl-1′-[(4-methylpiperazin-1-yl)methyl]spiro[1-benzofuran-3,3′-indol]-2′(1′H)-one hydrogen chloride] | > 300 nM
18 | > 50% |  | 1000 to 10000 nM |  | CN1C(=O)C2(COc3cc4c(cc32)OC(F)(F)O4)c2ccccc21 (centres unmarked) [Example 2.35] | > 300 nM
19 | < 50% |  | 1 to 100 nM |  | O=C1N(Cc2ncccc2C(F)(F)F)c2ccccc2[C@]12COc1cc3c(cc12)OCCO3 [Example 1.12, (8S)-1′-{[3-(trifluoromethyl)pyridin-2-yl]methyl}-2,3-dihydrospiro[furo[2,3-g][1,4]benzodioxine-8,3′-indol]-2′(1′H)-one] | < 300 nM
20 | < 50% | 1000 to 10000 nM |  |  | O=C1N(C[C@@H]2CCCO2)c2ccccc2[C@]12COc1cc3c(cc12)CCO3 [Example 11.69, (3S)-1′-[(2S)-tetrahydrofuran-2-ylmethyl]-5,6-dihydrospiro[benzo[1,2-b:5,4-b′]difuran-3,3′-indol]-2′(1′H)-one] | > 300 nM
21 | < 50% |  | 1 to 100 nM |  | CN1C(=O)COc2cc3c(cc21)OCC31C(=O)N(C[C@H]2CCCO2)c2ccccc21 (stereo partly drawn) [Example 9.23, 4-methyl-1′-(((R)-tetrahydrofuran-2-yl)methyl)-4,7-dihydrospiro[benzofuro[5,6-b][1,4]oxazine-8,3′-indoline]-2′,3(2H)-dione] | > 300 nM
22 | < 50% |  | 100 to 1000 nM |  | O=C1N(CC2CCOCC2)c2ccccc2C12COc1cc3c(cc12)CCO3 (centres unmarked) [Example 4.6, 1′-(tetrahydro-2H-pyran-4-ylmethyl)-5,6-dihydrospiro[benzo[1,2-b:5,4-b′]difuran-3,3′-indol]-2′(1′H)-one] | > 300 nM
23 | > 50% |  | 100 to 1000 nM | 62 to 65 °C | COc1ccc2c(c1OC)C1(COc3cc4c(cc31)OCCO4)C(=O)N2Cc1ccc(C(F)(F)F)o1 (centres unmarked) [Example 2.63, 4′,5′-dimethoxy-1′-{[5-(trifluoromethyl)furan-2-yl]methyl}-2,3-dihydrospiro[furo[2,3-g][1,4]benzodioxine-8,3′-indol]-2′(1′H)-one] | 
